SMILES strings stand for the structures.

One experiment deals with human small cell lung cancer NCI-H69 xenograft tumor model. Description: NCI-H69 xenograft, mono and combination with etoposide, 24-day experiment (Table 8). Type of experiment: in vivo, BALB/c nude mice. The conditions noted are these: etoposide 10 mg/kg alone. The procedure:
Experiment example 3: in vivo pharmacodynamics of human small cell lung cancer NCI-H69 cell subcutaneous xenograft tumor BALB/c nude mouse model:
Experimental animals: Female BALB/c nude mice, 6-8 weeks old, weighing 15-22 grams; supplier: Shanghai Linchang Biotechnology Co., LTD. (Linchang, Shanghai)
Human small cell lung cancer NCI-H69 cells (ATCC, item number: HTB-119 and ECACC-95111733) were cultured in vitro in a culture condition of RPMI-1640 medium with 10% fetal bovine serum, 100 U/mL penicillin and 100 μg/mL streptomycin, incubated at 37° C. and 5% CO2. Conventional passage was carried out twice a week. When cell saturation was 80%-90% and the number reaches the requirement, cells were collected, counted and inoculated.
0.2 mL (10×10^6) NCI-H69 cells (with matrix glue, and volume ratio of 1:1) were subcutaneously inoculated into a right back of each mouse, and group administration was initiated when the average tumor volume reaches about 110-120 mm^3.
The tested compound was prepared as a 5 mg/mL clarified solution with 10% DMSO+50% polyethylene glycol 400+40% water as the solvent.
The experimental indicators refers to study whether tumor growth was inhibited, delayed, or cured. Tumor diameter was measured twice a week with a vernier caliper. The calculation formula of the tumor volume was V=0.5a×b^2, and a and b represent the long diameter and short diameter of the tumor, respectively.
The antitumor efficacy of the compound was evaluated by TGI (%) or relative tumor proliferation rate T/C (%). TGI (%) reflects the tumor growth inhibition rate. The calculation of TGI (%): TGI (%)=[1−(average tumor volume at the end of administration of a certain treatment group−average tumor volume at the beginning of administration of the treatment group)/(average tumor volume at the end of treatment in solvent control group−average tumor volume at the beginning of treatment in solvent control group)]×control group.
Relative tumor proliferation rate T/C (%): the calculation formula was as follows: T/C %=[…] TRTV/CRTV group (TRTV: treatment group RTV; CRTV: negative control group RTV). According to results of tumor measurement, Relative Tumor Volume (RTV) was calculated by the formula RTV=Vt/V0, where V0 was the average tumor volume measured in group administration (i.e., d0), and Vt was the average tumor volume measured in a certain single measurement. TRTV and CRTV collect data on the same day.
Statistic analysis includes an average value and a standard error (SEM) of tumor volume at each time point for each group. […] If there was no significant difference in F value, Dunnet (2-sided) method was applied to analysis. All data were analyzed using SPSS 17.0. P<0.05 was considered as having a significant difference.
Consider `COc1cc([C@@H]2c3cc4c(cc3[C@@H](O[C@@H]3O[C@@H]5CO[C@@H](C)O[C@H]5[C@H](O)[C@H]3O)[C@H]3COC(=O)[C@H]23)OCO4)cc(OC)c1O` [Etoposide, etoposide, reference compound], for which the “RTV (24th day)” value is 6.09 ± 0.85, the “T/C (%) (24th day)” value stood at 75.6% and the “TGI (%) (24th day)” value turned out to be 33.4%.

Staying with this experiment, now noted: etoposide 10 mg/kg alone; average ± SEM, n = 9.
As to `COc1cc([C@@H]2c3cc4c(cc3[C@@H](O[C@@H]3O[C@@H]5CO[C@@H](C)O[C@H]5[C@H](O)[C@H]3O)[C@H]3COC(=O)[C@H]23)OCO4)cc(OC)c1O` [Etoposide, etoposide, reference compound], the “Tumor volume (mm^3) (0th day)” value is 114 ± 9 mm^3 and the “Tumor volume (mm^3) (24th day)” value was 654 + 48 mm^3.

Another experiment has as its target T1, DNA-PK (h) (Homo sapiens, UniProt P78527).
T1 construct: Eurofins Pharma Discovery Service (contract assay)
Put plainly: DNA-PK kinase inhibitory activity (HTRF, Eurofins). Type of experiment: biochemical. The conditions noted are these: ATP: 10 μM. How it is done: This experiment was tested at Eurofins Pharma Discovery Service, Reaction Biology Corp. (RBC)
[…] DNA-PK: Mg/ATP; GST-cMyc-p53; EDTA; Ser15 antibody; ATP: 10 μM; biotinylated phosphatidylinositol-3,4,5-triphosphate; GST label GRP1 PH domain; streptavidin and phycocyanin; europium-labelled monoclonal antibody against GST.
DNA-PK (h) was incubated in a determination buffer containing 50 nM GST-cMyc-p53 and Mg/ATP (density as required). The reaction was initiated by adding a mixture of Mg/ATP. After incubating at room temperature for 30 min, a termination solution containing EDTA was added to terminate the reaction. Finally, a detection buffer (containing labeled anti-GST monoclonal antibody and europium-labeled anti-phosphate Ser15 antibody against phosphorylated p53) was added. Then, the board was read in time-resolved fluorescence mode, and a Homogeneous Time Resolved Fluorescence (HTRF) signal was measured according to the formula HTRF=10000×(Em665 nm/Em620 nm).
A word on the IC50: it is the concentration that gives 50% inhibition. Higher therefore signals weaker potency. On to `COc1ccc(C(O)c2cc(-c3ccnc4cc(N5CCOCC5)ccc34)c(F)cc2Cl)nn1` (single isomer, unassigned) [Embodiment 1], for which the concentration for half-maximal inhibition (IC50) was 0.082 µM.
`COc1ccc(C(O)c2cc(-c3cnnc4cc(N5CCOCC5)ccc34)c(F)cc2Cl)nn1` (single isomer, unassigned) [Embodiment 4] gave an IC50 of 0.587 µM.
Same read-out and setting: then `COc1ccc(C(O)c2cc(-c3cc(C(F)F)nc4cc(N5CCOCC5)ccc34)c(F)cc2Cl)nn1` (single isomer, unassigned) [Embodiment 16], with 4.25 µM; and `COc1ccc(C(O)c2cc(-c3cc(N)nc4c(F)c(N5CCOCC5)ccc34)c(F)cc2Cl)nn1` (single isomer, unassigned) [Embodiment 9], with 0.84 µM; and `COc1ccc(C(O)c2cc(-c3cc(OC)nc4cc(N5CCOCC5)ccc34)c(F)cc2Cl)nn1` (single isomer, unassigned) [Embodiment 25], with 13.1 µM.
The same measure, in the same setting: then `Cc1nccnc1C(O)c1cc(-c2cnnc3c(F)c(N4CCOCC4)cc(F)c23)c(F)cc1Cl` (stereo not drawn) [Embodiment 17], with 0.015 µM; and `COc1ccc(C(O)c2cc(-c3cnnc4c(F)c(N5CCOCC5)ccc34)c(F)cc2Cl)nn1` (single isomer, unassigned) [Embodiment 8], with 0.138 µM; and `Cc1nccnc1C(O)c1cc(-c2cnnc3c(F)c(N4CCOCC4)cc(F)c23)c(F)cc1Cl` (single isomer, unassigned) [Embodiment 18], with 0.033 µM.
The compound `COc1ccc(C(O)c2cc(-c3cc(N)nc4cc(N5CCOCC5)ccc34)c(F)cc2Cl)nn1` (single isomer, unassigned) [Embodiment 12] had a half-maximal inhibitory concentration (IC50) of 0.657 µM.
As for `COc1ccc(C(O)c2cc(-c3cc(N)nc4c(F)c(N5CCOCC5)ccc34)c(F)cc2Cl)nn1` (single isomer, unassigned) [Embodiment 10], the half-maximal inhibitory concentration (IC50) stood at 0.0005 µM.
The same measure, in the same setting: then `COc1ccc(C(O)c2cc(-c3cnnc4c(F)c(N5CCOCC5)cc(F)c34)c(F)cc2Cl)nn1` (single isomer, unassigned) [Embodiment 20], with 0.136 µM.
For the compound `COc1ccc(C(O)c2cc(-c3ccnc4c(Cl)c(N5CCOCC5)ccc34)c(F)cc2Cl)nn1` (single isomer, unassigned) [Embodiment 5], the midpoint of inhibition, the IC50, lay at 0.307 µM.
The same measure, in the same setting: for `Cc1nccnc1C(O)c1cc(-c2ccnc3c(F)c(N4CCOCC4)cc(F)c23)c(F)cc1Cl` (single isomer, unassigned) [Embodiment 24] the value was 0.0057 µM; for `COc1ccc(C(O)c2cc(-c3ccnc4c(F)c(N5CCOCC5)cc(F)c34)c(F)cc2Cl)nn1` (single isomer, unassigned) [Embodiment 21], 0.076 µM.
The same measure, in the same setting: for `COc1ccc(C(O)c2cc(-c3cc(N)nc4cc(N5CCOCC5)cc(F)c34)c(F)cc2Cl)nn1` (single isomer, unassigned) [Embodiment 14] the value was 0.0027 µM.
Still for that read-out and setting: for `COc1ccc(C(O)c2cc(-c3cnnc4c(F)c(N5CCOCC5)ccc34)c(F)cc2Cl)nn1` (stereo not drawn) [Embodiment 7] the value was 0.0015 µM.
`COc1ccc(C(O)c2cc(-c3cc(C(F)F)nc4cc(N5CCOCC5)ccc34)c(F)cc2Cl)nn1` (single isomer, unassigned) [Embodiment 15]: inhibition was half-maximal at 0.071 µM (IC50).
The same measure, in the same setting: then `Cc1nccnc1C(O)c1cc(-c2ccnc3c(F)c(N4CCOCC4)cc(F)c23)c(F)cc1Cl` (stereo not drawn) [Embodiment 23], with 0.0087 µM.
Same read-out and setting: then `COc1ccc(C(O)c2cc(-c3ccnc4c(Cl)c(N5CCOCC5)ccc34)c(F)cc2Cl)nn1` (single isomer, unassigned) [Embodiment 6], with 0.008 µM.

These data come from patent publication US20220267310A1, “QUINAZOLINE AND CINNOLINE DERIVATIVES AS DNA-PK INHIBITOR” (MEDSHINE DISCOVERY INC., priority 2019, published 2022).
